Test results from ChEMBL document CHEMBL4706603, “Discovery of VEGFR-2 inhibitors exerting significant anticancer activity against CD44+ and CD133+ cancer stem cells (CSCs): Reversal of TGF-β induced epithelial-mesenchymal transition (EMT) in hepatocellular carcinoma” (Eur J Med Chem, 2020).
The source made the active and inactive calls. No cut-off for these calls is given here.

What was measured:
HepG2 [1] = test: Inhibition of epithelial-mesenchymal transition in TGF-beta-induced human HepG2 cells assessed as E-cadherin expression at IC50 incubated for 48 hrs by flow cytometry analysis (reference value: 2.92 %); format: functional; parameters: scale not given: the % may be the effect or the level left
[2] = Toxicity in Wistar rat assessed as normal histoarchitecture of alveoli and bronchi in lungs without inflammatory or pathological changes at 2000 mg/kg, po and measured on day 15 by microscopic analysis; format: organism-based; settings: in vivo, 360 h, time 15 day
[3] = Retention time in Wistar rat plasma by HPLC-MS analysis; format: ADME, cell-free
[4] = Toxicity in female Wistar rat assessed as hard abdomen at 2000 mg/kg, po observed for 48 hrs; format: organism-based; settings: in vivo
[5] = AUC (0 to infinity) in Wistar rat at 5 mg/kg, po by HPLC-MS analysis; format: ADME, organism-based; parameters: route oral, time infinity, dose 5 mg/kg; settings: in vivo
HepG2 [6] = test: Induction of apoptosis in human HepG2 cells assessed as necrotic cells by measuring intense red fluorescence at IC50 incubated for 24 hrs by Alexa Fluor488-annexin V/PI staining based fluorescence analysis; format: functional, cell-based
[7] = Toxicity in female Wistar rat assessed as periodic body stretching at 2000 mg/kg, po observed for 48 hrs; format: organism-based; settings: in vivo
HepG2 [8] = test: Antimigratory activity against human HepG2 cells assessed as reduction in cell migration at IC50 incubated for 24 hrs by transwell migration assay; format: functional, cell-based
HepG2 [9] = test: Induction of apoptosis in human HepG2 cells assessed as early apoptotic cells by measuring green fluorescence at IC50 incubated for 24 hrs by Alexa Fluor488-annexin V/PI staining based fluorescence analysis; format: functional, cell-based
[10] = Toxicity in Wistar rat assessed as normal splenic tissue with normal red and white pulp with lymphoid cellular population at 2000 mg/kg, po and measured on day 15 by microscopic analysis; format: organism-based; settings: in vivo, 360 h, time 15 day
HepG2 [11] = test: Inhibition of epithelial-mesenchymal transition in TGF-beta-induced human HepG2 cells assessed as SNAIL expression at IC50 incubated for 48 hrs by flow cytometry analysis (reference value: 97.78 %); format: functional; parameters: scale not given: the % may be the effect or the level left
[12] = Toxicity in Wistar rat assessed as effect on relative weight of kidney at 5 to 2000 mg/kg, po and measured on day 15; format: organism-based; settings: in vivo, 360 h, dose 5-2000 mg/kg, time 15 day
HepG2 [13] = test: Induction of apoptosis in human HepG2 cells assessed as necrotic cells by measuring orange-red coloured flourescence at IC50 incubated for 24 hrs by EtBr/AO staining based fluorescence microscopic analysis; format: functional, cell-based
[14] = Toxicity in Wistar rat assessed as effect on relative weight of liver at 5 to 2000 mg/kg, po and measured on day 15; format: organism-based; settings: in vivo, 360 h, dose 5-2000 mg/kg, time 15 day
[15] = Toxicity in Wistar rat assessed as body weight loss at 2000 mg/kg, po and observed for 1 week; format: organism-based; settings: in vivo, 168 h, time 1 weeks
HUVEC = test: Induction of apoptosis in human HUVEC assessed as early apoptotic cells at IC50 incubated for 48 hrs by annexin V-FITC and PI staining based flow cytometry (reference value: <1%); format: functional
[16] = Toxicity in female Wistar rat assessed as apathy occurence at 2000 mg/kg, po observed for 48 hrs; format: organism-based; settings: in vivo
MDA-MB-231 [17] = test: Induction of apoptosis in human MDA-MB-231 cells assessed as early apoptotic cells at IC50 incubated for 72 hrs by Alexa Fluor488-annexin V/PI staining based flow cytometric analysis (Rvb= 0.6 %); format: functional
[18] = Toxicity in Wistar rat assessed as effect on urea level in serum at 5 to 2000 mg/kg, po and measured on day 15; format: organism-based; settings: in vivo, 360 h, dose 5-2000 mg/kg, time 15 day
HepG2 [19] = test: Induction of cell cycle arrest in human HepG2 cells harboring CD133+ assessed as increase in S phase arrest at IC50 concentration incubated for 48 hrs by PI staining based flow cytometry analysis; format: functional
[20] = Toxicity in Wistar rat assessed as effect on water consumption at 5 to 2000 mg/kg, po and observed for 14 days; format: organism-based; settings: in vivo, 336 h, dose 5-2000 mg/kg, time 14 day
[21] = MRT in Wistar rat at 5 mg/kg, po measured upto 72 hrs by HPLC-MS analysis; format: ADME, organism-based; settings: in vivo
[22] = Toxicity in Wistar rat assessed as normal liver parenchyma with normal hepatocytes arranged in hepatic strands and normal vascular tissue and bile duct without inflammatory or pathological changes at 2000 mg/kg, po and measured on day 15 by microscopic analysis; format: organism-based; settings: in vivo, 360 h, time 15 day
[23] = Toxicity in Wistar rat assessed as mortality of organism at 5 to 2000 mg/kg, po and observed for 14 days; format: organism-based; settings: in vivo, 336 h, dose 5-2000 mg/kg, time 14 day
[24] = Inhibition of VEGFR2 expression in human HUVEC assessed as mean fluorescence intensity at IC50 incubated for 48 hrs by fluorescence microscopic analysis (reference value: 1.448 +/- 0.01); format: functional
[25] = Toxicity in Wistar rat assessed as effect on relative weight of spleen at 5 to 2000 mg/kg, po and measured on day 15; format: organism-based; settings: in vivo, 360 h, dose 5-2000 mg/kg, time 15 day
MDA-MB-231 [26] = test: Induction of apoptosis in human MDA-MB-231 cells assessed as late apoptotic cells at IC50 incubated for 72 hrs by Alexa Fluor488-annexin V/PI staining based flow cytometric analysis (Rvb= 0.0 %); format: functional
[27] = Inhibition of VEGFR2 expression in human HUVEC assessed as mean fluorescence intensity at IC50 incubated for 48 hrs by FITC based flow cytometry analysis (reference value: 49.24 +/- 0.47); format: functional
[28] = Toxicity in Wistar rat assessed as effect on relative weight of heart at 5 to 2000 mg/kg, po and measured on day 15; format: organism-based; settings: in vivo, 360 h, dose 5-2000 mg/kg, time 15 day
HepG2 [29] = test: Induction of apoptosis in human HepG2 cells assessed as late apoptotic cells by measuring orange coloured nucleus at IC50 incubated for 24 hrs by EtBr/AO staining based fluorescence microscopic analysis; format: functional, cell-based
[30] = Toxicity in Wistar rat assessed as effect on creatinine level in serum at 5 to 2000 mg/kg, po and measured on day 15; format: organism-based; settings: in vivo, 360 h, dose 5-2000 mg/kg, time 15 day
HepG2 [31] = test: Cytotoxicity against human HepG2 cells assessed as reduction in cell viability incubated for 24 hrs by MTT assay; format: functional, cell-based
HepG2 [32] = test: Induction of apoptosis in human HepG2 cells assessed as blebbing of nucleus by measuring orange coloured fluorescence at IC50 incubated for 24 hrs by EtBr/AO staining based fluorescence microscopic analysis; format: functional, cell-based
[33] = AUC (0 to 72 hrs) in Wistar rat at 5 mg/kg, po measured upto 72 hrs by HPLC-MS analysis; format: ADME, organism-based; parameters: route oral, dose 5 mg/kg, time <=72; settings: in vivo
HepG2 [34] = test: Induction of mitochondrial membrane potential disruption in human HepG2 cells assessed as green fluorescence at IC50 incubated for 24 hrs by JC-10 staining based fluorescence assay; format: functional, cell-based
[35] = Toxicity in Wistar rat assessed as toxic signs at 5 to 300 mg/kg, po and observed for 14 days; format: organism-based; settings: in vivo, 336 h, dose 5-300 mg/kg, time 14 day
HepG2 [36] = test: Induction of apoptosis in human HepG2 cells assessed as apoptotic index at IC50 incubated for 24 hrs by EtBr/AO staining based fluorescence microscopic analysis (reference value: 1.99 %); format: functional

CC(=O)Nc1ccc(Oc2cccc3c(NC(=O)Nc4cccc(C(F)(F)F)c4)cccc23)cc1
Activity (HepG2 [1]): 46.7%
Activity [2]: Non-Toxic
Retention_time [3]: 10.17 min
Activity [4]: Toxic
AUC(0-inf) [5]: 625 µg·h/mL
Activity (HepG2 [6]): Active
Activity [7]: Toxic
Activity (HepG2 [8]): Active
Activity (HepG2 [9]): Active
Activity [10]: Non-Toxic
Activity (HepG2 [11]): 10.26%
Activity [12]: Non-Toxic
Activity (HepG2 [13]): Active
Activity [14]: Non-Toxic
Activity [15]: Toxic
Activity (HUVEC): 37.53%
Activity [16]: Toxic
Activity (MDA-MB-231 [17]): 68.2%
Activity [18]: Non-Toxic
Activity (HepG2 [19]): Active
Activity [20]: Non-Toxic
MRT [21]: 14.3 h
Activity [22]: Non-Toxic
Activity [23]: Non-Toxic
Flu intensity [24]: 1
Activity [25]: Non-Toxic
Activity (MDA-MB-231 [26]): 4.3%
Flu intensity [27]: 18.41
Activity [28]: Non-Toxic
Activity (HepG2 [29]): Active
Activity [30]: Non-Toxic
inhibition (HepG2 [31]): Dose-dependent effect
IC50 (HepG2 [31]; HepG2, 24 h): 258 nM
Activity (HepG2 [32]): Active
AUC(0-t) [33]: 621 µg·h/mL
Activity (HepG2 [34]): Active
Activity [35]: Non-Toxic
Activity (HepG2 [36]): 86.66%
